# According to patent US20060069043A1, “Chiral separation, characterization and biological action of optically active isomers of digoxin” (priority 2004, published 2006):
# Read-outs that look alike come from different tables or passages of the source.
# Key:
# [1] = test system: gram-negative and gram-positive bacteria; details: against both gram-negative and gram-positive bacteria; cited from earlier work
# guinea pig = experiment: Effect on PR interval (AV node conduction) and cardiac contractibility in anesthetized open-chest guinea pig; format: in vivo; details: pentobarbital anesthesia, IV infusion at 6 μg/kg/min continuously
# Experimental: The guinea pig or rat is anesthetized with pentobarbital at 40 mg/kg IP, then connected to an EKG recorder. The animal is then placed on a small animal respirator. Aseptic surgical instruments are soaked in ethanol and then flamed. An incision is made in the chest wall to open the chest. A Walton Brody stain gauge arch is sutured to the right ventricle to measure contractile changes. The refractoriness of the AV node is determined by measuring the PR interval on the surface EKG. Graphs can be created from the data displaying the dose related change in the PR interval to the dose related contractile augmentation. Digoxin or chiral isolates are infused through the jugular vein at concentrations (from 0.1 μM and then to 10 μM) at a constant rate by infusion pump, to determine the differential effects on the AV node and cardiac contractibility. The infusions are continued to a 50% level augmentation in contractibility or the development of ventricular tachycardia. To maintain a consistent level of anesthesia, pentobarbital 20 mg/kg IP or 10 mg/kg IV for more immediate action at 30-minute intervals may be administered.
# The effect of digoxin and one of the two chiral isomers was evaluated in the guinea pig. Guinea pigs were anesthetized with pentobarbital. […] An EKG was continuously recorded. Conduction through the AV node was determined by measuring the PR interval on the surface EKG. […]
# serum protein [2] = experiment: Free fraction by centrifugation; format: in vitro ADME; details: for fraction unbound at 60 min: centrifugation time 60 minutes
# Experimental: Free fraction of digitoxin increased with centrifugation time from 18% at 10 minutes to 37% at 80 minutes (500 g) without reaching plateau levels.
# serum protein [3] = experiment: Serum protein binding by equilibrium dialysis; format: in vitro ADME, patients; details: human, read-out: digitoxin binding (protein binding), mean (converted)
# Experimental: Equilibrium was obtained after 16 hours when titrated glycoside was added to serum. When added to the buffer phase, equilibrium was reached after 60 hours. Distribution of digitoxin, for example, in buffer-buffer control, was around 50% (49.4 to 50.6%). Absorption of ^3H-labeled glycoside to the dialysis membrane was 0.2% of the added ^3H-glycoside. Digitoxin protein binding was dependent on albumin content. […] No trace of protein was found when adding concentrated perchloric acid to the buffer phase. Counting efficacy was the same whether serum or buffer aliquots were added to the counting fluid. The counting error for buffer samples containing the smallest amount of radioactivity was 1% to 1.5%. Chamber equilibrium dialysis gave similar results. […] No significant change in digitoxin binding was found when the sera from 9 patients were dialyzed at 20° C. (mean, 96.7%) and at 37° C. (mean, 96.9%). Digoxin isolates will be used under similar conditions.
# serum protein [4] = experiment: In vitro drug studies: ability to induce changes in digitoxin serum protein binding; format: in vitro ADME; details: procainamide 5 mg/ml, phenytoin 50 mg/ml, heparin 5 IU/ml, rifampicillin 4.5 μg/ml
# Experimental: The ability to induce changes in digitoxin serum protein binding was tested for the following drugs: procainamide (5 mg/ml), phenytoin (50 mg/ml), heparin (5 IU/ml), and rifampicillin (4.5 μg/ml). […] Identical procedures will be used for digoxin isolates.
compound,measurement,setting,value
"CC1COc2c(N3CCN(C)CC3)c(F)cc3c(=O)c(C(=O)O)cn1c23 (single isomer, unassigned; (-)) [(−)-Ofloxacin]",activity relative to the racemate,[1],8-128 times
CC1O[C@@H](O[C@H]2C(O)C[C@H](O[C@H]3C(O)C[C@H](OC4CC[C@@]5(C)[C@H](CC[C@@H]6[C@@H]5C[C@@H](O)[C@]5(C)[C@@H](C7=CC(=O)OC7)CC[C@]65O)C4)OC3C)OC2C)CC(O)[C@@H]1O (stereo partly shown) [Digoxin],PR interval on the surface EKG (conduction through the AV node),guinea pig,progressive increase in PR interval
same,cardiac contractibility as measured by the strain-gauge arch,guinea pig,increase in cardiac contractibility
C[C@H]1O[C@@H](O[C@H]2[C@@H](O)C[C@H](O[C@H]3[C@@H](O)C[C@H](O[C@H]4CC[C@@]5(C)[C@H](CC[C@@H]6[C@@H]5CC[C@]5(C)[C@@H](C7=CC(=O)OC7)CC[C@]65O)C4)O[C@@H]3C)O[C@@H]2C)C[C@H](O)[C@@H]1O [digitoxin],fraction unbound at 10 min,"serum protein [2]; centrifugation time 10 minutes, 500 g",0.18
same,fraction unbound at 60 min,serum protein [2]; 135 g,0.059
same,fraction unbound at 60 min,serum protein [2]; 560 g,0.157
same,fraction unbound at 80 min,"serum protein [2]; centrifugation time 80 minutes, 500 g",0.37
same,fraction unbound,serum protein [3]; sera from 9 patients dialyzed at 20° C.,0.033
same,fraction unbound,serum protein [3]; sera from 9 patients dialyzed at 37° C.,0.031
O=C1NC(=O)C(c2ccccc2)(c2ccccc2)N1 [phenytoin],changes in the serum protein binding of digitoxin,serum protein [4],None of these induced significant changes
CCN(CC)CCNC(=O)c1ccc(N)cc1 [procainamide],changes in the serum protein binding of digitoxin,serum protein [4],None of these induced significant changes
heparin,changes in the serum protein binding of digitoxin,serum protein [4],None of these induced significant changes
rifampicillin,changes in the serum protein binding of digitoxin,serum protein [4],None of these induced significant changes
